Measured values published in patent publication US7405307B2, “Biphenylcarboxamides useful as lipid lowering agents” (Janssen Pharmaceutica N.V., priority 2000, dated 2008).

Assays:
[1] = tested on: ApoB secretion, HepG2 cells; experiment: Quantification of the secretion of ApoB; type: cell-based; settings: Homo sapiens, 24 hours of incubation with test compound, apoB immunoprecipitation, read-out: pIC50 values (= −log IC50 value) (converted)
Procedure: C. Pharmacological Examples C.1. Quantification of the Secretion of ApoB.
HepG2 cells were cultured in 24-well plates in MEM Rega 3 containing 10% fetal calf serum. At 70% confluency, the medium was changed and the test compound or carrier (DMSO, 0.4% final concentration) was added. After 24 hours of incubation, the medium was transferred to Eppendorf tubes and cleared by centrifugation. A sheep antibody directed against either apoB was added to the supernatant and the mixture was kept at 8° C. for 24 hours. Then, rabbit anti-sheep antibody was added and the immune complex was allowed to precipitate for 24 hours at 8° C. The immunoprecipitate was pelleted by centrifugation for 25 minutes at 1320 g and washed twice with a buffer containing 40 mM Mops, 40 mM NaH2PO4, 100 mM NaF, 0.2 mM DTT, 5 mM EDTA, 5 mM EGTA, 1% Triton-X-100, 0.5% sodium deoxycholate (DOC), 0.1% SDS, 0.2 μM leupeptin and 0.2 μM PMSF. Radioactivity in the pellet was quantified by liquid scintillation counting.
Resulting IC50 values are enumerated in Table C.1

IC50 [1] | melting point | SMILES
94.8 nM |  | CCCNC(=O)C(c1ccccc1)N(C)C1CCN(c2ccc(NC(=O)c3ccccc3-c3ccc(C(F)(F)F)cc3)cc2)C1 (stereo not shown) [Compound 116]
1020 nM |  | COC(=O)C(NCC(C)(C)CNc1ccc(NC(=O)c2ccccc2-c2ccc(C(F)(F)F)cc2)cc1)c1ccccc1 (stereo not shown) [Compound 5]
2610 nM |  | CCCNC(=O)C(c1ccccc1)N1CCC(Nc2ccc(NC(=O)c3ccccc3-c3ccc(C(F)(F)F)cc3)cc2)CC1 (stereo not shown) [Compound 114]
1930 nM |  | CCNC(=O)C(c1ccccc1)N(C)CCCN(C)c1ccc(NC(=O)c2ccccc2-c2ccc(C(F)(F)F)cc2)cc1 (stereo not shown) [Compound 20]
506 nM |  | CCNC(=O)C(c1ccccc1)N(C)CCN(C)c1ccc(NC(=O)c2ccccc2-c2ccc(C(F)(F)F)cc2)cc1 (stereo not shown) [Compound 21]
3000 nM |  | CCCOC(=O)C(c1ccccc1)N1CCC(Nc2ccc(NC(=O)c3ccccc3-c3ccc(C(F)(F)F)cc3)cc2)CC1 (stereo not shown) [Compound 106]
757 nM |  | CCCOC(=O)C(c1ccccc1)N(C)CCN(C)c1ccc(NC(=O)c2ccccc2-c2ccc(C(F)(F)F)cc2)cc1 (stereo not shown) [Compound 15]
41.7 nM |  | COC(=O)C(c1ccccc1)N(C)C1CCN(c2ccc(NC(=O)c3ccccc3-c3ccc(C(F)(F)F)cc3)cc2)C1 (stereo not shown) [Compound 100]
229 nM |  | CCNC(=O)C(NCCCNc1ccc(NC(=O)c2ccccc2-c2ccc(C(F)(F)F)cc2)cc1)c1ccccc1 (stereo not shown) [Compound 19]
1030 nM |  | CCNC(=O)C(NCC(C)(C)CNc1ccc(NC(=O)c2ccccc2-c2ccc(C(F)(F)F)cc2)cc1)c1ccccc1 (stereo not shown) [Compound 22]
938 nM |  | CCCOC(=O)C(c1ccccc1)N(C)CCCN(C)c1ccc(NC(=O)c2ccccc2-c2ccc(C(F)(F)F)cc2)cc1 (stereo not shown) [Compound 14]
1970 nM |  | CCCNC(=O)C(c1ccccc1)N(C)CCCN(C)c1ccc(NC(=O)c2ccccc2-c2ccc(C(F)(F)F)cc2)cc1 (stereo not shown) [Compound 26]
809 nM |  | CCCOC(=O)C(NC1CCC(Nc2ccc(NC(=O)c3ccccc3-c3ccc(C(F)(F)F)cc3)cc2)CC1)c1ccccc1 (stereo not shown) [Compound 17]
1490 nM |  | CCCNC(=O)C(NCC(C)(C)CNc1ccc(NC(=O)c2ccccc2-c2ccc(C(F)(F)F)cc2)cc1)c1ccccc1 (stereo not shown) [Compound 28]
2070 nM |  | COC(=O)C(NC1CCC(Nc2ccc(NC(=O)c3ccccc3-c3ccc(C(F)(F)F)cc3)cc2)CC1)c1ccccc1 (stereo not shown) [Compound 6]
1260 nM |  | CCCOC(=O)C(NCC(C)(C)CNc1ccc(NC(=O)c2ccccc2-c2ccc(C(F)(F)F)cc2)cc1)c1ccccc1 (stereo not shown) [Compound 16]
1570 nM |  | CCNC(=O)C(NC1CCC(Nc2ccc(NC(=O)c3ccccc3-c3ccc(C(F)(F)F)cc3)cc2)CC1)c1ccccc1 (stereo not shown) [Compound 23]
753 nM |  | CCCNC(=O)C(NC1CCC(Nc2ccc(NC(=O)c3ccccc3-c3ccc(C(F)(F)F)cc3)cc2)CC1)c1ccccc1 (stereo not shown) [Compound 29]
183 nM |  | CCOC(=O)C(NC1CCN(c2ccc(NC(=O)c3ccccc3-c3ccc(C(F)(F)F)cc3)cc2)C1)c1ccccc1 (stereo not shown) [Compound 105]
71 nM |  | COC(=O)C(NCCNc1ccc(NC(=O)c2ccccc2-c2ccc(C(F)(F)F)cc2)cc1)c1ccccc1 (stereo not shown) [Compound 1]
948 nM |  | CCCNC(=O)C(NC1CCN(c2ccc(NC(=O)c3ccccc3-c3ccc(C(F)(F)F)cc3)cc2)CC1)c1ccccc1 (stereo not shown) [Compound 115]
566 nM |  | CCOC(=O)C(c1ccccc1)N(C)CCN(C)c1ccc(NC(=O)c2ccccc2-c2ccc(C(F)(F)F)cc2)cc1 (stereo not shown) [Compound 9]
317 nM |  | COC(=O)C(NCCCNc1ccc(NC(=O)c2ccccc2-c2ccc(C(F)(F)F)cc2)cc1)c1ccccc1 (stereo not shown) [Compound 2]
948 nM |  | CCCNC(=O)C(NCCCNc1ccc(NC(=O)c2ccccc2-c2ccc(C(F)(F)F)cc2)cc1)c1ccccc1 (stereo not shown) [Compound 25]
150 nM |  | CCCOC(=O)C(NC1CCN(c2ccc(NC(=O)c3ccccc3-c3ccc(C(F)(F)F)cc3)cc2)C1)c1ccccc1 (stereo not shown) [Compound 109]

IC50 [1] | melting point | SMILES
766 nM |  | COC(=O)C(c1ccccc1)N(C)CCCN(C)c1ccc(NC(=O)c2ccccc2-c2ccc(C(F)(F)F)cc2)cc1 (stereo not shown) [Compound 3]
1370 nM |  | CCOC(=O)C(NC1CCC(Nc2ccc(NC(=O)c3ccccc3-c3ccc(C(F)(F)F)cc3)cc2)CC1)c1ccccc1 (stereo not shown) [Compound 11]
 | 142 °C | COC(=O)C(NC/C=C/c1ccc(NC(=O)c2ccccc2-c2ccc(C(F)(F)F)cc2)cc1)c1ccccc1 (stereo not shown) [Compound 137]
488 nM |  | CCCOC(=O)C(NCCCNc1ccc(NC(=O)c2ccccc2-c2ccc(C(F)(F)F)cc2)cc1)c1ccccc1 (stereo not shown) [Compound 13]
69 nM |  | CCCOC(=O)C(c1ccccc1)N(C)C1CCN(c2ccc(NC(=O)c3ccccc3-c3ccc(C(F)(F)F)cc3)cc2)C1 (stereo not shown) [Compound 108]
98.4 nM |  | COC(=O)C(c1ccccc1)N(C)CCN(C)c1ccc(NC(=O)c2ccccc2-c2ccc(C(F)(F)F)cc2)cc1 (stereo not shown) [Compound 4]
1570 nM |  | CCCOC(=O)C(NC1CCN(c2ccc(NC(=O)c3ccccc3-c3ccc(C(F)(F)F)cc3)cc2)CC1)c1ccccc1 (stereo not shown) [Compound 107]
330 nM |  | CCOC(=O)C(NCCNc1ccc(NC(=O)c2ccccc2-c2ccc(C(F)(F)F)cc2)cc1)c1ccccc1 (stereo not shown) [Compound 7]
689 nM |  | CCCOC(=O)C(NCCNc1ccc(NC(=O)c2ccccc2-c2ccc(C(F)(F)F)cc2)cc1)c1ccccc1 (stereo not shown) [Compound 12]
< 30 nM |  | CCNC(=O)C(NCCNc1ccc(NC(=O)c2ccccc2-c2ccc(C(F)(F)F)cc2)cc1)c1ccccc1 (stereo not shown) [Compound 18]
39.4 nM |  | CCNC(=O)C(c1ccccc1)N(C)C1CCN(c2ccc(NC(=O)c3ccccc3-c3ccc(C(F)(F)F)cc3)cc2)C1 (stereo not shown) [Compound 112]
948 nM |  | CCOC(=O)C(NCC(C)(C)CNc1ccc(NC(=O)c2ccccc2-c2ccc(C(F)(F)F)cc2)cc1)c1ccccc1 (stereo not shown) [Compound 10]
348 nM |  | CCNC(=O)C(NC1CCN(c2ccc(NC(=O)c3ccccc3-c3ccc(C(F)(F)F)cc3)cc2)CC1)c1ccccc1 (stereo not shown) [Compound 111]
171 nM |  | CCCNC(=O)C(NCCNc1ccc(NC(=O)c2ccccc2-c2ccc(C(F)(F)F)cc2)cc1)c1ccccc1 (stereo not shown) [Compound 24]
1170 nM |  | CCNC(=O)C(c1ccccc1)N1CCC(Nc2ccc(NC(=O)c3ccccc3-c3ccc(C(F)(F)F)cc3)cc2)CC1 (stereo not shown) [Compound 110]
< 30 nM |  | CCOC(=O)C(c1ccccc1)N(C)C1CCN(c2ccc(NC(=O)c3ccccc3-c3ccc(C(F)(F)F)cc3)cc2)C1 (stereo not shown) [Compound 104]
1600 nM |  | CCOC(=O)C(NC1CCN(c2ccc(NC(=O)c3ccccc3-c3ccc(C(F)(F)F)cc3)cc2)CC1)c1ccccc1 (stereo not shown) [Compound 103]
129 nM |  | CCOC(=O)C(NCCCNc1ccc(NC(=O)c2ccccc2-c2ccc(C(F)(F)F)cc2)cc1)c1ccccc1 (stereo not shown) [Compound 8]
10.7 nM |  | CCNC(=O)C(NC1CCN(c2ccc(NC(=O)c3ccccc3-c3ccc(C(F)(F)F)cc3)cc2)C1)c1ccccc1 (stereo not shown) [Compound 113]
< 30 nM |  | CCCNC(=O)C(NC1CCN(c2ccc(NC(=O)c3ccccc3-c3ccc(C(F)(F)F)cc3)cc2)C1)c1ccccc1 (stereo not shown) [Compound 117]
> 3000 nM |  | CCOC(=O)C(c1ccccc1)N1CCC(Nc2ccc(NC(=O)c3ccccc3-c3ccc(C(F)(F)F)cc3)cc2)CC1 (stereo not shown) [Compound 102]
40.9 nM |  | COC(=O)C(NC1CCN(c2ccc(NC(=O)c3ccccc3-c3ccc(C(F)(F)F)cc3)cc2)C1)c1ccccc1 (stereo not shown) [Compound 101]
1580 nM |  | COC(=O)C(NC1CCN(c2ccc(NC(=O)c3ccccc3-c3ccc(C(F)(F)F)cc3)cc2)CC1)c1ccccc1 (stereo not shown) [Compound 98]
625 nM |  | CCCNC(=O)C(c1ccccc1)N(C)CCN(C)c1ccc(NC(=O)c2ccccc2-c2ccc(C(F)(F)F)cc2)cc1 (stereo not shown) [Compound 27]
